Data set [1] in a line: Two-week solid-state stability (XRPD, HPLC purity). The data set is classed as physicochemical. The conditions noted are these: two weeks; for Stress stability / solid-state physical and chemical stability (in words): 25° C./60% RH and 40° C./75% RH (open); for Purity (area %) after storage / Purity vs Initial (%): open. The protocol:
Solid-state Stability. Solid-state stability of Freebase Type E+F (818718-01-A), L-Malate Type B (818718-21-A1) and Mesylate Type A (818718-21-A5) were evaluated under 25° C./60% RH and 40° C./75% RH (open) for two weeks. Stability samples were characterized by XRPD to check any solid form change, and by HPLC to check purity change.

Data set [2] in a line: Hygroscopicity by dynamic vapor sorption (DVS). The data set is classed as physicochemical. The conditions noted are these: for Hygroscopicity (%), water uptake: DVS, 25° C./80% RH; for Form Change after DVS: XRPD before and after DVS. The protocol:
Hygroscopicity. DVS isotherm plot was collected at 25° C. to investigate the solid form stability as a function of humidity. All of Freebase Type E+F, L-Malate Type B, Succinate Type B and Mesylate Type A were equilibrated at ambient humidity (70% RH or 80% RH) to prevent form change before testing.
DVS. Dynamic Vapor Sorption (DVS) was measured via a SMS (Surface Measurement Systems) DVS Intrinsic. The relative humidity at 25° C. was calibrated against deliquescence point of LiCl, Mg(NO3)2 and KCl.

Data set [3] can be described thus: Kinetic solubility in water, SGF and FaSSIF at 37° C. Type of data set: physicochemical. The conditions noted are these: for Kinetic solubility in water (in words): Freebase Type E+F as control. How it is done:
Kinetic Solubility. Kinetic solubility of salt leads was measured in water, SGF and FaSSIF to evaluate their solubility and disproportionation risk, using Freebase Type E+F (818718-01-A) as control. […] After centrifugation, supernatants were collected for HPLC and pH tests, and wet cakes were collected for XRPD characterization.

The test system of a further data set is Apc^Min+/− mice. Description: ApcMin mouse efficacy model. The data set is classed as in vivo. The protocol: TNK1 upregulation is reported to play a role in the pathogenic process of intestinal barrier disruption in a transgenic mice model of increased TNK1 expression/activation (PMID: 30320600). Therefore, the efficacy of the compound of structural formula I was evaluated in germline mutant mouse model of intestinal neoplasia and cachexia, Apc^Min+/− model, which is also known to induce gut barrier dysfunction (PMID: 21914473). Apc^Min+/− mice are reported to start the development of tumors at approximately 4 weeks of age. Twenty female Apc^Min+/− mice (JAX Stock No: 002020) were enrolled in the study at the age of 10 weeks. Randomization was done based on the body weight, and animals were divided into four treatment groups (5 mice/group). […] Celecoxib is a COX-2 inhibitor, and was used as a positive control because it has been reported to prevent and regress adenomas in APC model (PMID: 11016626). Mice were sacrificed 2 hours after the last dose of total 10 weeks of dosing (71 days), at the age of 20 weeks. After dosing started, the animals were checked daily for morbidity and mortality.

The structures appear in SMILES notation. Values after ≈ are worked out from the molar mass of the structure shown. “Also recorded” adds a separate entry of the source.

Regarding `COc1cc(N2CCN(C)CC2)c(Cl)cc1Nc1ncc(Cl)c(Nc2cccnc2N2CCCC2=O)n1` [Freebase Type E+F], the “Stress stability / solid-state physical and chemical stability (in words)” value in data set [1] was “good physical and chemical stability; also recorded: good physicochemical stability”. For the same compound, the “Purity (area %) after storage” value came to 98.64 area % in data set [1] (25° C./60% RH) and 98.75 area % in data set [1] (40° C./75% RH). Moreover, the “Purity vs Initial (%)” value stood at 100.0% in data set [1] (25° C./60% RH) and 100.1% in data set [1] (40° C./75% RH). Further, the “Hygroscopicity (%), water uptake” value in data set [2] is given as 1.55%; in data set [2] (listed as Freebase Type E + F) it was “hygroscopic (1.55) %”. The “Form Change after DVS” value is “No form change” in data set [2] and “No” in data set [2] (listed as Freebase Type E + F). The “Hygroscopicity (class)” value in data set [2] (based on water uptake at 25° C./80% RH) is reported as “slightly hygroscopic (slightly hygroscopic - 0.2~2%)”. The “FC: form change” value in data set [3] (FaSSIF, 1 hr) is recorded as “Yes”; in data set [3] (FaSSIF, 4 hrs) it was “Yes”; in data set [3] (FaSSIF, 24 hrs), “Yes”; in data set [3] (H2O, 1 hr), “Yes”; in data set [3] (H2O, 4 hrs), “Yes”; in data set [3] (H2O, 24 hrs), “Yes”. In addition, the “FC: form change” value is reported as “Yes” in data set [3] (SGF, 1 hr); “Yes” in data set [3] (SGF, 4 hrs); “Yes” in data set [3] (SGF, 24 hrs). Also, the “S: solubility” value stood at 170 µg/mL in data set [3] (FaSSIF, 1 hr); 180 µg/mL in data set [3] (FaSSIF, 4 hrs); 110 µg/mL in data set [3] (FaSSIF, 24 hrs); 1.2 µg/mL in data set [3] (H2O, 1 hr); 1.2 µg/mL in data set [3] (H2O, 4 hrs); 2.4 µg/mL in data set [3] (H2O, 24 hrs). Moreover, the “pH: final pH” value in data set [3] (FaSSIF, 1 hr) came out at 6.6; in data set [3] (FaSSIF, 4 hrs), 5.6; in data set [3] (FaSSIF, 24 hrs), 6.5; in data set [3] (H2O, 1 hr), 8.8; in data set [3] (H2O, 4 hrs), 8.6; in data set [3] (H2O, 24 hrs), 8.4. The “pH: final pH” value in data set [3] (SGF, 1 hr) is recorded as 5.4; in data set [3] (SGF, 4 hrs) it was 5.4; in data set [3] (SGF, 24 hrs), 6.2. Further, the “Kinetic solubility in SGF (in words)” value is “relatively high solubility” in data set [3] (SGF) and “showed relatively high solubility in SGF at 37 °C L-Malate” in data set [3] (SGF, listed as Freebase Type E + F). The solubility (as a rule, the dissolved amount per volume that the medium holds) at 1 h in data set [3] (SGF, 37 °C, simulated gastric fluid, thermodynamic from solid, SGF, 1 hr, read-out: S: solubility) was 7100 µg/mL (≈ 13.1 mM). In data set [3] (SGF, 37 °C, simulated gastric fluid, thermodynamic from solid, SGF, 4 hrs, read-out: S: solubility), the solubility at 4 h is 7200 µg/mL (≈ 13.2 mM). The solubility at 24 h in data set [3] (SGF, 37 °C, simulated gastric fluid, thermodynamic from solid, SGF, 24 hrs, read-out: S: solubility) is 7200 µg/mL (≈ 13.2 mM). Besides, in data set [3] (all the three media (water, SGF, FaSSIF)), the “form after kinetic solubility test” value was “turned to Freebase Type E”.

For the compound `COc1cc(N2CCN(C)CC2)c(Cl)cc1Nc1ncc(Cl)c(Nc2cccnc2N2CCCC2=O)n1` [Succinate Type B], in data set [2], the “Hygroscopicity (%), water uptake” value stood at 8.22% and the “Form Change after DVS” value is “No form change”.

For `COc1cc(N2CCN(C)CC2)c(Cl)cc1Nc1ncc(Cl)c(Nc2cccnc2N2CCCC2=O)n1` [Mesylate Type A], in data set [1], the “Stress stability / solid-state physical and chemical stability (in words)” value is “good physical and chemical stability; also recorded: good physicochemical stability; also recorded: good physiochemical stability”. For the same compound, the “Purity (area %) after storage” value in data set [1] (25° C./60% RH) is listed as 99.31 area %; in data set [1] (40° C./75% RH), 99.43 area %. The “Purity vs Initial (%)” value in data set [1] (25° C./60% RH) came out at 100.1%; in data set [1] (40° C./75% RH), 100.2%. Further, the “Hygroscopicity (%), water uptake” value in data set [2] came to 2.74%. For the same compound, the “Form Change after DVS” value in data set [2] is “No form change and No”. Moreover, the “FC: form change” value in data set [3] (FaSSIF, 1 hr) was “new form with low crystallinity and Yes”; in data set [3] (FaSSIF, 4 hrs), “Yes”; in data set [3] (FaSSIF, 24 hrs), “Yes”. Moreover, the “S: solubility” value in data set [3] (FaSSIF, 1 hr) amounted to 370 µg/mL; in data set [3] (FaSSIF, 4 hrs), 360 µg/mL; in data set [3] (FaSSIF, 24 hrs), 340 µg/mL; in data set [3] (H2O, 1 hr), 7500 µg/mL; in data set [3] (H2O, 4 hrs), 7500 µg/mL; in data set [3] (H2O, 24 hrs) it was 7400 µg/mL. Moreover, the “S: solubility” value was found to be 8200 µg/mL in data set [3] (SGF, 1 hr); 8000 µg/mL in data set [3] (SGF, 4 hrs); 7400 µg/mL in data set [3] (SGF, 24 hrs). In addition, the “pH: final pH” value in data set [3] (FaSSIF, 1 hr) came to 6.4; in data set [3] (FaSSIF, 4 hrs), 6.3; in data set [3] (FaSSIF, 24 hrs), 6.2; in data set [3] (H2O, 1 hr), 6.1; in data set [3] (H2O, 4 hrs) it was 6.2; in data set [3] (H2O, 24 hrs) it was 6.0. Besides, the “pH: final pH” value in data set [3] (SGF, 1 hr) is 2.5; in data set [3] (SGF, 4 hrs), 2.6; in data set [3] (SGF, 24 hrs) it was 2.5. Moreover, the “Kinetic solubility in SGF (in words)” value in data set [3] (SGF) is “showed relatively high solubility in SGF at 37 °C L-Malate”. Moreover, in data set [3], the “Kinetic solubility in water (in words)” value was “increased solubility”.

As to `Cc1ccc(-c2cc(C(F)(F)F)nn2-c2ccc(S(N)(=O)=O)cc2)cc1` [celecoxib, reference compound], the “reduction of spleen size compared to vehicle” value in the data set on Apc^Min+/− mice (120 mg/kg) is listed as “approximately 26%”. Moreover, the “decrease in number of polyps in the intestine compared to vehicle” value in the data set on Apc^Min+/− mice (120 mg/kg once daily oral gavage, 10 weeks, female Apc^Min+/− mice) was “approximately 90%”.

In the case of `COc1cc(N2CCN(C)CC2)c(Cl)cc1Nc1ncc(Cl)c(Nc2cccnc2N2CCCC2=O)n1` [L-Malate Type B], the “Stress stability / solid-state physical and chemical stability (in words)” value in data set [1] is “good physical and chemical stability; also recorded: good physicochemical stability”. Also, the results for the “Purity (area %) after storage” value in data set [1] (25° C./60% RH) and in data set [1] (40° C./75% RH) were 98.97 area % and 98.96 area %, respectively. Also, the “Purity vs Initial (%)” value in data set [1] (25° C./60% RH) and in data set [1] (40° C./75% RH) was 100.0% in each case. Further, in data set [2], the “Hygroscopicity (%), water uptake” value stood at 3.00%. Besides, the “Form Change after DVS” value in data set [2] was “No form change and No”. For the same compound, the “S: solubility” value in data set [3] (FaSSIF, 1 hr) was found to be 7200 µg/mL; in data set [3] (FaSSIF, 4 hrs), 6900 µg/mL; in data set [3] (FaSSIF, 24 hrs) it was 7400 µg/mL; in data set [3] (H2O, 1 hr) it was 7100 µg/mL; in data set [3] (H2O, 4 hrs) it was 7200 µg/mL; in data set [3] (H2O, 24 hrs), 6700 µg/mL. Moreover, the “S: solubility” value in data set [3] (SGF, 1 hr) is 7600 µg/mL; in data set [3] (SGF, 4 hrs) it was 7700 µg/mL; in data set [3] (SGF, 24 hrs) it was 6900 µg/mL. Further, the “pH: final pH” value in data set [3] (FaSSIF, 1 hr) was 5.0; in data set [3] (FaSSIF, 4 hrs), 4.9; in data set [3] (FaSSIF, 24 hrs) it was 4.9; in data set [3] (H2O, 1 hr), 4.0; in data set [3] (H2O, 4 hrs) it was 4.0; in data set [3] (H2O, 24 hrs), 4.1. Also, the “pH: final pH” value in data set [3] (SGF, 1 hr) is listed as 3.2; in data set [3] (SGF, 4 hrs), 3.1; in data set [3] (SGF, 24 hrs), 3.2. Moreover, the “Kinetic solubility in FaSSIF (in words)” value in data set [3] (FaSSIF, compared with Mesylate Type A and Freebase Type E+F) is listed as “Type B showed much higher solubility than Mesylate Type A”. Moreover, the “Kinetic solubility in SGF (in words)” value in data set [3] (SGF) was “showed relatively high solubility in SGF at 37 °C L-Malate”. In addition, the “Kinetic solubility in water (in words)” value in data set [3] was “increased solubility”.
